Measurements: patent EP2384752A1, “Combination preparation comprising a phosphodiesterase inhibitor and a COX inhibitor for treating cancer” (Universitätsklinikum Hamburg-Eppendorf, priority 2010, dated 2011)

What was measured:
[1] = test system: Zelllinien des kleinzelligen Bronchialkarzinoms H69, SW2, OH1, OH3 und H82; experiment: XTT cell proliferation test, single agents Indometacin or IBMX; format: cell-based
Excerpt: Vor Beginn der Versuche zur Zellproliferation wurde zunächst für jede Zelllinie eine Eichkurve erstellt, um die optimale Zellzahl pro ml für die nachfolgenden Versuchsreihen zu ermitteln. Dafür wurde das Zellproliferationskit XTT (Roche, Penzberg, Deutschland) verwendet. Hierbei wird durch ein in allen vitalen Zellen vorhandenes Enzym das gelbe Tetrazoliumsalz XTT zum orangen Salz Formazan reduziert. Somit stellt die Extinktion der jeweiligen Zellkulturprobe ein Maß für die Anzahl der vitalen Zellen dar.
Die Zelllinien wurden in sieben verschiedenen Konzentrationen zwischen 10^4 und 10^7 Zellen pro ml in Mikrotiterplatten mit 96 Vertiefungen ausgesät. In jede Vertiefung wurde zunächst 10 µl PBS (pH 7,4) vorgelegt und dann 90 µl der Zellsuspension mit der jeweiligen Zellzahl pro ml zugegeben. Für jede Zelllinie wurden sechs parallele Ansätze hergestellt. Nach 72 Stunden Inkubation unter Standardbedingungen wurden 50 µl XTT Labeling Mixture pro Vertiefung zugegeben. Nach sechs Stunden wurde die Absorption bei 450 nm in einem Dynatech MR 3.13 Mikroelisa Reader gemessen und anhand der erzielten Werte Eichkurven erstellt. Figur 1 zeigt die Eichkurven für die Zelllinien H69, SW2, OH1, OH3 und H82OH1-Zellen. Die Zellzahlen wurden so gewählt, dass sich die Zellen bei ungehindertem Wachstum in der exponentiellen Wachstumsphase befanden. So ergab sich eine Konzentration von 160.000 Zellen pro ml für die Zelllinien OH3 und SW2, 300.000 Zellen pro ml für OH1, 500.000 Zellen pro ml für H69 und 750.000 Zellen pro ml für H82.
Dieser Versuch wurde mit allen oben genannten Zelllinien durchgeführt. Dafür wurden zunächst Lösungen der einzelnen Wirkstoffe in die Vertiefungen einer 96-Loch-Mikrotiterplatte gegeben. Die in Kulturmedium vorliegenden Zellsuspensionen wurden zugegeben, sodass sich ein Gesamtvolumen von 100 µl pro Vertiefung ergab.
Die Zellzahl für die jeweiligen Zelllinien betrug für SW2 205.700 Zellen pro ml, für H82 964.000 Zellen pro ml, für OH1 385.700 Zellen pro ml, für OH3 205.700 Zellen pro ml und für H69 643.000 Zellen pro ml. Da zum Lösen von Indometacin 5% Ethanol und zum Lösen von IBMX 1 % Ethanol verwendet wurde, bestand die Kontrolle aus 70 µl Zellsuspension mit der jeweiligen Zellzahl pro ml, 20 µl Medium und 10 µl Alkoholkontrolle mit einer Konzentration von 6% Ethanol. Im Gesamtvolumen von 100 µl ergab sich somit eine Alkoholkonzentration von 0,6%. Der Leerwert bestand aus 100 µl Medium. Jede gewählte Kombination der Wirkstoffe in den unterschiedlichen Konzentrationen wurde pro Versuch sechsfach getestet.

H69 Zellen = experiment: XTT cell proliferation test, Meloxicam, Sildenafil and their combination; format: cell-based; settings: Meloxicam alone, compared with Indomethacin
Method: Die zu untersuchenden Zelllinien wurden mit den in den Figuren angegeben Konzentrationen von Indometacin und IBMX behandelt. Die Proliferationsversuche wurden in 96-Loch-Mikrotiterplatten durchgeführt; das Gesamtvolumen pro Vertiefung betrug 100 µl. 80 µl Zellsuspension wurde pro Vertiefung verwendet. Die Zellzahl der jeweils verwendeten Suspensionen betrug für SW2 180.000 Zellen pro ml, für OH1 338.000 Zellen pro ml, für OH3 180.000 Zellen pro ml und für H69 563.000 Zellen pro ml. Da zum Lösen sowohl von Indometacin 20% Ethanol als auch von IBMX 20% Ethanol verwendet wurde, bestand die Kontrolle aus 80 µl Zellsuspension mit der jeweiligen Zellzahl pro ml und 20 µl Alkoholkontrolle mit einer Konzentration von 20% Ethanol. Im Gesamtvolumen von 100 µl ergab sich so eine Alkoholkonzentration von 4%. Eine weitere Kontrolle bestand aus 80 µl Zellsuspension mit der jeweiligen Zellzahl pro ml und 20 µl Kulturmedium, um den wachstumshemmenden Effekt vom Ethanol erkennen zu können. Der Leerwert bestand aus 100 µl Kulturmedium.
H69 Zellen wurden wie in Beispiel 5 beschrieben mit Meloxicam und Sildefanil behandelt. […] Die Ergebnisse sind in Figur 10 dargestellt. Auch hier lässt sich eine signifikant synergistische Wirkung auf die Proliferation der H69-Zellen beobachten.

[2] = 72 h, read-out: Inhibierung auf einen Wert von % der Alkoholkontrolle

CC(C)Cn1c(=O)n(C)c(=O)c2[nH]cnc21 [IBMX, 1-Methyl-3-(2-methylpropyl)-7H-purine-2,6-dione]
activity at 1500 µM ([1]; 72 h, 1,5 mM IBMX, cell line not stated, read-out: Hemmung, % der Alkoholkontrolle): 51%
activity at 1250 µM ([1]; 72 h, 1,25 mM IBMX, cell line not stated, read-out: Hemmung, % der Alkoholkontrolle): 52%
activity at 2000 µM ([1]; 72 h, 2,0 mM IBMX, cell line not stated, read-out: Hemmung, % der Alkoholkontrolle): 45%
activity at 750 µM ([1]; 72 h, from 0,75 mM IBMX, cell line not stated, data not shown, read-out: Hemmung, % der Alkoholkontrolle): ~80%
Wirkung auf die verschiedenen Zellen des kleinzelligen Bronchialkarzinoms ([1]; single agent): antiproliferative Wirkung

COc1ccc2c(c1)c(CC(=O)O)c(C)n2C(=O)c1ccc(Cl)cc1 [Indometacin, 2-[1-(4-Chlorbenzoyl)-5-methoxy-2-methyl-1H-indol-3-yl]essigsäure]
activity at 200 µM [1, 2]: ~60%
activity at 300 µM [1, 2]: ~60%

Cc1cnc(NC(=O)C2=C(O)c3ccccc3S(=O)(=O)N2C)s1 [Meloxicam, 4-Hydroxy-2-methyl-N-(5-methyl-2-thiazolyl)-2H-1,2-benzothiazin-3-carboxamid-1,1-dioxid]
Wirkung bei H69-Zellen (H69 Zellen): wirkt bei H69-Zellen in den gleichen Dosierungen wie Indomethacin
